US20120003335A1, “CONSTITUTIVE ANDROSTANE RECEPTOR (CAR) AS A THERAPEUTIC TARGET FOR OBESITY AND TYPE TWO DIABETES” (UNIVERSITY OF PITTSBURGH-OF THE COMMONWEALTH SYSTEM OF …, priority 2008, published 2012)

What was measured:
[1] = test system: C57BL/6J mice fed with high fat diet (HFD); assay: Prevention of high fat diet-induced obesity (body weight, MRI body composition); type: in vivo; details: male mice, HFD five weeks, 0.5 mg/kg once a week
Protocol: Eight-week male C57BL/6J mice were fed with high fat diet (HFD) for five weeks and simultaneously treated with the CAR agonist TCPOBOP (0.5 mg/kg, once a week) or vehicle (DMSO). […] The effect of TCPOBOP on the fat mass was so dramatic that the differences were obvious and significant after one week of drug treatment (FIGS. 1A-b and 1A-c). At the end of five-week treatment, the body weight differences between TCPOBOP group and vehicle group were completely accountable by the gain of fat mass in the TCPOBOP group (FIG. 1B).

[2] = test system: C57BL/6J female mice fed with HFD; assay: Treatment of pre-existing HFD-induced obesity; type: in vivo
Protocol: To determine whether CAR activation is effective in controlling obesity in mice with pre-existing obesity, C57BL/6J female mice were fed with HFD for six weeks, followed by 6 weeks of TCPOBOP (0.5 mg/kg, once a week) treatment when mice remained on HFD.

[3] = test system: ob/ob mice; assay: Obesity in genetically leptin deficient ob/ob mice; type: in vivo
Text: TCPOBOP was also effective in the genetically leptin deficient and obese ob/ob mice. In this experiment, 7-week old female ob/ob mice were maintained in chow diet and treated with TCPOBOP or vehicle for eight weeks.

[4] = test system: HFD-fed C57BL/6J male mice; assay: Insulin sensitivity by GTT and ITT, HFD-fed mice; type: in vivo; details: five weeks treatment
Text: (§1) Since obesity is strongly associated with insulin resistance, a typical characteristic of type two diabetes, whether the CAR agonist can also improve insulin sensitivity was examined. […] The insulin sensitizing effect of TCPOBOP was also evident in ob/ob mice (FIGS. 3C and 3D).

[5] = test system: ob/ob mice; assay: Insulin sensitivity by GTT and ITT, ob/ob mice; type: in vivo
Text: as §1

[6] = test system: HFD-fed C57BL/6j mice; assay: Fasting serum glucose and lipid profile, HFD-fed mice; type: in vivo
Text: as §1

[7] = test system: ob/ob mice; assay: Fasting serum glucose and lipid profile, ob/ob mice; type: in vivo
Text: as §1

[8] = test system: lipogenic genes (Srebp-1c, Acc-1, Fas, Scd-1) and gluconeogenic enzymes (G6p, Pepck); assay: Lipogenic and gluconeogenic gene expression in tissues of HFD-fed mice; type: in vivo
Text: To understand the mechanisms by which CAR inhibits obesity and improves insulin sensitivity, gene expression was profiled in several relevant tissues, including the liver, skeletal muscle, white adipose tissue (WAT) and brown adipose tissue (BAT) in HFD-fed C57BL/6J mice treated with TCPOBOP for one week.
Since excessive VLDL production and triglyceride secretion contribute to the pathogenesis of hypertriglyceridemia, obesity and diabetes, VLDL secretion rate after a 5-week TCPOBOP treatment also was evaluated. […] The inhibition of VLDL secretion was consistent with the lower serum triglyceride level (data not shown) and inhibition of hepatic lipogenesis (FIG. 5A) in these animals.

[9] = test system: HFD-fed mice; assay: Hepatic steatosis, adipose tissue size and adipocyte morphology; type: in vivo; details: treated five weeks
[10] = test system: HFD-fed mice; assay: VLDL secretion rate; type: in vivo; details: after 5-week treatment
[11] = test system: CAR-/- mice; assay: Lipogenic and gluconeogenic gene expression in CAR-/- mice; type: in vivo; details: C57BL/6J and SvJ129 mixed background, HFD five week
Text: The suppression of lipogenic and gluconeogenic gene expression was also seen in TCPOBOP-treated wild type mice of C57BL/6J and SvJ129 mixed background (data not shown).

[12] = test system: BAT genes involved in energy expenditure; assay: BAT energy expenditure gene expression and oxygen consumption; parameters: species or system mice; details: mouse, in vivo
Text: BAT plays an important role in regulating energy expenditure. The smaller BAT in TCPOBOP-treated mice prompted an examination of the expression of BAT genes involved in energy expenditure.

[13] = test system: PPARα and its target genes; assay: Expression of beta-oxidation genes in liver and skeletal muscle; type: in vivo, mice
Text: (§2) The effect of TCPOBOP on the fatty acid oxidation in the liver and skeletal muscle also was investigated. […] These include the suppression of long-chain acyl-CoA dehydrogenase (Aacdl), medium-chain acyl CoA dehydrogenase (Acadm) and HMG-CoA synthase (HMGCS2).

[14] = test system: gastrocnemius muscle derived from HFD-fed mice; assay: Mitochondrial β-oxidation rate in gastrocnemius muscle ([14C]-oleate)
Text: as §2

[15] = test system: adipose triglyceride lipase (ATGL), hormone sensitive lipase (HSL); assay: Lipase expression in WAT; parameters: species or system mice; details: mouse, in vivo
[16] = test system: HFD-fed mice; assay: Leptin and adiponectin production and food intake; type: in vivo
Text: Leptin is an adipokine primarily produced in WAT. […] HFD induced leptin mRNA expression as expected (FIG. 8A). […] The decreased production of leptin may have resulted from decreased fat mass, and the inhibition of food intake may have contributed to the anti-obesity effect.

[17] = test system: Cyp2b10; details: 0.5 mg/kg once a week
[18] = HFD-fed C57BL/6J mice, treated one week
[19] = short-term (one week) treatment

Clc1cnc(Oc2ccc(Oc3ncc(Cl)cc3Cl)cc2)c(Cl)c1 [TCPOBOP, 1,4-bis[2-(3,5 dichloropyridyloxy)] benzene]
lean mass, TCPOBOP vs vehicle group [1]: not significantly different | gain of body weight ([1]; after two weeks of drug treatment, vs vehicle (DMSO)): significantly inhibited gain of body weight | lean to body weight ratio ([1]; ratio decreased in vehicle-treated mice): remained steady | gain of fat mass (MRI) ([1]; vs vehicle): significantly inhibited the gain of fat mass | fat mass ([2]; HFD six weeks, then 6 weeks 0.5 mg/kg once a week on HFD): inhibition of gain of fat mass | body weight course ([2]; HFD six weeks, then 6 weeks 0.5 mg/kg once a week on HFD, vehicle group continued to gain): stabilized the mouse body weight | body weight vs vehicle group ([2]; after 5 weeks of drug treatment): significantly lower than the vehicle group | gain of fat mass ([3]; 7-week old female ob/ob mice, chow diet, eight weeks treatment): less gain of fat mass | body weight vs vehicle group ([3]; end of eight week treatment): significantly lower body weight | fat mass ([3]; end of eight week treatment): deceased fat mass | lean mass ([3]; end of eight week treatment): increased lean mass | insulin sensitivity (GTT and ITT) [4]: significantly improved insulin sensitivity | insulin sensitizing effect (GTT and ITT) [5]: also evident | Fasting Glucose [6]: 102.8 ± 17.7 mg/dL | Free Fatty Acid ([6]; fasting serum): 6.8 ± 0.6 µM | Insulin ([6]; fasting serum): 1.57 ± 0.37 ng/mL | Total Cholesterol ([6]; fasting serum): 89.7 ± 5.3 mg/dL | Total Triglyceride ([6]; fasting serum): 132.8 ± 17.7 mg/dL | Free Fatty Acid [7]: 21.4 ± 1.54 µM | Total Cholesterol [7]: 90.2 ± 9.9 mg/dL | Total Triglyceride [7]: 126.3 ± 13.7 mg/dL | Fas and Scd-1 gene expression in skeletal muscle, BAT and WAT [8, 18]: Significant inhibition | expression of Acc-1 in BAT [8, 18]: significantly inhibited | expression of lipogenic genes Srebp-1c, Acc-1, Fas and Scd-1 in the liver [8, 18]: suppressed the expression of lipogenic genes | expression of glucose-6-phosphatase (G6p) and phosphoenolpyruvate carboxykinase (Pepck) ([8]; after 5-week treatment): significantly inhibited | adipocyte morphology [9]: adipocyte hypotrophy | hepatic steatosis [9]: ameliorated hepatic steatosis | sizes of abdomen WAT and BAT [9]: decreased sizes of abdomen WAT and BAT | VLDL secretion rate vs vehicle group [10]: significantly reduced | expression of lipogenic and gluconeogenic genes in liver, skeletal muscle, WAT, BAT [11]: none of the lipogenic and gluconeogenic genes was significantly altered | BAT expression of PGC-1b, mCPT-I, LCAD, D2, UCP-1, UCP-2 and UCP-3 [12]: significantly increased | oxygen consumption [12]: increased oxygen consumption | expression of PPARα and its target genes involved in β-oxidation and ketogenesis, liver and skeletal muscle ([13]; chronic (five weeks) treatment): significantly suppressed | expression of PPARα [13, 19]: modestly suppressed | expression of genes related to β-oxidation [13, 19]: little effect | substrate switch on addition of pyruvate ([14]; pyruvate added to incubation buffer, vehicle mitochondria failed to switch): showed significant switch | accumulation of radiolabeled intermediates in the acid-soluble metabolite (ASM) (incomplete β-oxidation) ([14]; vs vehicle group): much more dramatic reduction | rate of [14C]-oleate oxidation to CO2 (complete β-oxidation) ([14]; vs vehicle group): modest, although significant, decrease | expression of adipose triglyceride lipase (ATGL) in WAT [15]: induced in WAT | expression of hormone sensitive lipase (HSL) in WAT [15]: but not the hormone sensitive lipase (HSL) | expression of adiponectin ([16]; HFD-fed mice): increased expression of adiponectin | leptin mRNA level vs vehicle-treated counterparts ([16]; HFD-fed mice): dramatically lower | leptin production at the protein level ([16]; HFD-fed mice): decreased leptin production | food intake ([16]; mouse, in vivo): significantly reduced the food intake | Cyp2b10 gene expression in the liver [17]: activation of Cyp2b10
